# Experimental data from patent publication US8859018B2, “Delivery carrier for antimicrobial essential oils” (Nestec S.A., priority 2010, dated 2014).
# Test system: Zygosaccharomyces bailii (yeast)
# Assay: Challenge test with yeasts in MOS / MAS
# Format: cell-based
# Details: for Week 0 (Log cfu/g) / Week 1 (Log cfu/g) / Week 2 (Log cfu/g) / Week 3 (Log cfu/g) / Week 4 (Log cfu/g): 0.10%
# Protocol: Target microorganisms used for the challenge tests (CT) were Zygosaccharomyces bailii (yeast), Aspergillus niger (mould), Penicillium nalgiovense (mould) and Eurotium amstelodami (mould).
# Stock culture of the yeast was revived on MEB. The inoculated broths were incubated at 30° C. for 48-72 hours with constant swirling. The broth cultures were further sub-cultured in the MEB and incubated similarly at 30° C. for 48-72 hours with constant swirling. The final broth cultures were then analyzed for total yeast counts on MEA plate as well as for microbial contamination on PCA by spread plat 0.1-0.5 ml of suspension onto the agar plates respectively. Before the challenge test is initiated, the broth inoculated with yeast was diluted aseptically with sterile Tryptone Salt 0.1% to the desired level such that the inoculation level in the product would be 2-3 log of colony-forming-units (cfu) of yeast per gram (Cfu: colony forming units).
# Challenge Test with yeasts was according to the following steps: 1) Add 100 g of MOS into a 250 ml sterile Schott bottle with screw-cap cover; 2) Add 0.1 ml to 2 ml of yeast (Z. bailii) inoculum to meet the target inoculum of 10^2 to 10^3 cfu/g of MOS into the 100 g MOS and shake to mix well; 3) Pour 35 g of the inoculated MOS into two 150 ml sterile disposable polypropylene container with screw-cap cover; 4) Pipette 1 g of inoculated MOS into 9 ml sterile Tryptone Salt 0.1% diluent and vortex. Perform this in duplicate; 5) Plate 0.1 ml to 0.5 ml of inoculated Tryptone Salt 0.1% onto MEA at appropriate dilutions by Spread Plate Method. Incubate the plates at 30° C. for 3 days for the enumeration of the initial yeast count; 6) Incubate the inoculated MOS in 150 ml containers at 30° C. for a week; 7) After one week, repeat steps 4 to 6 for the weekly monitoring of Z. bailii growth behavior in MOS. Perform the monitoring for a period of 4 weeks; 8) The control was prepared by repeating steps 3 to 7 without using any inoculum.
# The method for producing MAS was the same as for the MOS production in experiment 4. The preparation of the microorganism cultures as well as the challenge tests were identical to the ones described in experiment 4 as well.
# [1] = MAGGI Abalone Sauce, age 0 month
# [2] = MAGGI Abalone Sauce, age 1 month
# [3] = MAGGI Abalone Sauce, age 3 month
# [4] = MAGGI Abalone Sauce, age 6 month
# [5] = MAGGI Abalone Sauce, age 10 month
# [6] = MAGGI Abalone Sauce, age 12 month
# [7] = MAGGI Oyster Sauce, age 0 month
smiles,measurement,setting,value
"C/C=C/C=C/C(=O)[O-].[K+] [KS, potassium sorbate]",Week 0 (Log cfu/g),[1],<1.00 Log cfu/g
same,Week 1 (Log cfu/g),[1],<1.00 Log cfu/g
same,Week 2 (Log cfu/g),[1],<1.00 Log cfu/g
same,Week 3 (Log cfu/g),[1],<1.00 Log cfu/g
same,Week 4 (Log cfu/g),[1],<1.00 Log cfu/g
same,Week 0 (Log cfu/g),[2],<1.00 Log cfu/g
same,Week 1 (Log cfu/g),[2],<1.63 Log cfu/g
same,Week 2 (Log cfu/g),[2],<1.00 Log cfu/g
same,Week 3 (Log cfu/g),[2],<1.00 Log cfu/g
same,Week 4 (Log cfu/g),[2],<1.00 Log cfu/g
same,Week 0 (Log cfu/g),[3],2.96 Log cfu/g
same,Week 1 (Log cfu/g),[3],<1.00 Log cfu/g
same,Week 2 (Log cfu/g),[3],<1.00 Log cfu/g
same,Week 3 (Log cfu/g),[3],<1.00 Log cfu/g
same,Week 4 (Log cfu/g),[3],<1.00 Log cfu/g
same,Week 0 (Log cfu/g),[4],2.13 Log cfu/g
same,Week 1 (Log cfu/g),[4],<1.00 Log cfu/g
same,Week 2 (Log cfu/g),[4],<1.00 Log cfu/g
same,Week 3 (Log cfu/g),[4],<1.00 Log cfu/g
same,Week 4 (Log cfu/g),[4],<1.00 Log cfu/g
same,Week 0 (Log cfu/g),[5],4.43 Log cfu/g
same,Week 1 (Log cfu/g),[5],<2.00 Log cfu/g
same,Week 2 (Log cfu/g),[5],<1.00 Log cfu/g
same,Week 3 (Log cfu/g),[5],<1.00 Log cfu/g
same,Week 4 (Log cfu/g),[5],<1.00 Log cfu/g
same,Week 0 (Log cfu/g),[6],2.84 Log cfu/g
same,Week 1 (Log cfu/g),[6],1.72 Log cfu/g
same,Week 2 (Log cfu/g),[6],<1 Log cfu/g
same,Week 3 (Log cfu/g),[6],<1 Log cfu/g
same,Week 4 (Log cfu/g),[6],<1 Log cfu/g
same,yeast growth,"MAGGI Abalone Sauce, up to 12 months, KS 0.10%, clove leaf oil 0.06 wt % and 0.15 wt %",not detected
same,Week 0 (Log cfu/g),[7],3.544 Log cfu/g
same,Week 1 (Log cfu/g),[7],<1.00 Log cfu/g
same,Week 2 (Log cfu/g),[7],<1.00 Log cfu/g
same,Week 3 (Log cfu/g),[7],<1.00 Log cfu/g
same,Week 4 (Log cfu/g),[7],<1.00 Log cfu/g
